The values that follow come from paper PMC6787163, “Systematic Dual Targeting of Dendritic Cell C-Type Lectin Receptor DC-SIGN and TLR7 Using a Trifunctional Mannosylated Antigen” (Frontiers in Chemistry, 2019).

This assay addresses T1, DC-SIGN S-ECD (Homo sapiens, UniProt Q9NNX6).
T1 construct: The ECD of DC-SIGN (residues 66–404) was overexpressed and purified as previously described; made in house
T1 sequence (Q9NNX6 66-404): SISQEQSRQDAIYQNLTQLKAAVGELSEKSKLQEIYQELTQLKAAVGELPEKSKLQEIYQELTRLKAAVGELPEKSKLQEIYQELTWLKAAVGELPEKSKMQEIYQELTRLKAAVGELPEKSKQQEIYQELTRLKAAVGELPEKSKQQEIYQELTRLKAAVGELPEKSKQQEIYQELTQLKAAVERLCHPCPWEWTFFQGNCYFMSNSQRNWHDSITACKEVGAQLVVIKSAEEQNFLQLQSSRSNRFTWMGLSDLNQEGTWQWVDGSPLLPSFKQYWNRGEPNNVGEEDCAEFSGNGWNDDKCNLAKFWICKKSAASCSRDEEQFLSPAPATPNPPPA
Briefly: SPR direct interaction assay on oriented DC-SIGN S-ECD surface. It counts as binding. The settings on record: for Kd: SPR direct interaction, oriented tetrameric DC-SIGN ECD surface, apparent Kd, read-out: Kdapp. The protocol:
The affinity of the clusters for the extracellular domain (ECD) of the DC-SIGN receptor (DC-SIGN ECD) was estimated via surface plasmon resonance (SPR) assays (Tabarani et al., [2009]). The apparent Kd was calculated in direct interaction mode using a surface functionalized in an oriented manner with DC-SIGN ECD. In this assay, tetrameric DC-SIGN ECD is attached to the surface of the sensor chip via the N-terminus of its neck oligomerization domain, thus presenting its four carbohydrate recognition domains toward the solvent, realistically mimicking the presentation of the receptor on cell surface (Porkolab et al., [2019]). For some of the low affinity ligands, in the mM range, it was not possible to determine their affinity with this assay, and therefore a competition experiment was performed providing IC50 values (Timpano et al., [2008]) (Figure 3A). […] When comparing equivalent clusters, the α1,2-di-mannoside (B series) bound with the highest affinity (Figure 3A). […] A potential explanation for this effect could be that the spacing of clusters is more important for the larger tri-mannosides.
The direct interaction experiments were executed on a T200 Biacore with a CM3 series S sensor chip. Contrary to the competition assay described above, in this test, DC-SIGN ECD used harbors a StreptagII in its N-terminus (DC-SIGN S-ECD) to allow its capture and functionalization onto the surface in an oriented manner. Flow cells were functionalized as previously described (Porkolab et al., [2019]). Briefly, after EDC/NHS activation, flow cells were functionalized with streptactin protein in a first step. Flow cell 1 was used as control, while other flow cells were, in a second round of activation, functionalized with 100 μg/mL of a DC-SIGN S-ECD up to a final density ranging between 2,500 and 3,000 RU, via tag specific capture and linkage by amine coupling chemistry simultaneously. The compounds were injected in running buffer of 25 mM Tris pH 8, 150 mM NaCl, 4 mM CaCl2, 0.05% Tween 20 onto the surface at increasing concentrations with a flow rate of 30 μL/min. The ligand titration led to the determination of an apparent Kd value. The data was analyzed in BIAcore BIAevaluation software for direct interaction 1:1 calculation assuming that the Kd will reflect the affinity of the ligands (glycoclusters) for the DC-SIGN oriented surface used as a whole.

For `CC(=O)N[C@@H](CCCCn1cc(CO[C@H]2O[C@H](CO)[C@@H](O)[C@H](O)[C@@H]2O[C@H]2O[C@H](CO)[C@@H](O)[C@H](O)[C@@H]2O)nn1)C(=O)NCC(=O)N[C@@H](CCCCn1cc(CO[C@H]2O[C@H](CO)[C@@H](O)[C@H](O)[C@@H]2O[C@H]2O[C@H](CO)[C@@H](O)[C@H](O)[C@@H]2O)nn1)C(=O)NCC(=O)N[C@@H](CCCCn1cc(CO[C@H]2O[C@H](CO)[C@@H](O)[C@H](O)[C@@H]2O[C@H]2O[C@H](CO)[C@@H](O)[C@H](O)[C@@H]2O)nn1)C(=O)NCC(=O)N[C@@H](CCCCN)C(N)=O` [B3], the Kd was found to be 19.5 ± 0.5 µM.

As to `CC[C@H](NC(=O)[C@H](CC(=O)O)NC(=O)[C@H](CC(C)C)NC(=O)[C@H](CCCNC(=N)N)NC(=O)[C@H](CCC(N)=O)NC(=O)[C@H](C)NC(=O)[C@H](CCC(=O)O)NC(=O)[C@@H](NC(=O)[C@H](Cc1c[nH]c2ccccc12)NC(=O)[C@H](CCC(=O)O)NC(=O)[C@@H]1CCCN1C(=O)[C@H](Cc1ccc(O)cc1)NC(=O)[C@H](CC(C)C)NC(=O)[C@H](CCC(N)=O)NC(=O)[C@H](CCCNC(=N)N)NC(=O)[C@H](CC(N)=O)NC(=O)[C@H](C)NC(=O)[C@@H](NC(=O)[C@@H](NC(=O)[C@@H]1CCCN1C(=O)CNC(=O)[C@@H]1CCCN1C(=O)[C@H](CCC(=O)O)NC(=O)[C@H](CC(C)C)NC(=O)[C@H](Cc1ccc(O)cc1)NC(=O)[C@@H](NC(=O)[C@H](Cc1c[nH]cn1)NC(=O)[C@@H](NC(=O)[C@@H](NC(=O)[C@H](CCCCn1cc(CCC(=O)NCCCC[C@H](NC(=O)CNC(=O)[C@H](CCCCn2cc(CO[C@H]3O[C@H](CO)[C@@H](O)[C@H](O)[C@@H]3O[C@H]3O[C@H](CO)[C@@H](O)[C@H](O)[C@@H]3O)nn2)NC(=O)[C@H](CCCCn2cc(CO[C@H]3O[C@H](CO)[C@@H](O)[C@H](O)[C@@H]3O[C@H]3O[C@H](CO)[C@@H](O)[C@H](O)[C@@H]3O)nn2)NC(=O)[C@H](CCCCn2cc(CO[C@H]3O[C@H](CO)[C@@H](O)[C@H](O)[C@@H]3O[C@H]3O[C@H](CO)[C@@H](O)[C@H](O)[C@@H]3O)nn2)NC(=O)[C@H](CCCCn2cc(CO[C@H]3O[C@H](CO)[C@@H](O)[C@H](O)[C@@H]3O[C@H]3O[C@H](CO)[C@@H](O)[C@H](O)[C@@H]3O)nn2)NC(=O)[C@H](CCCCn2cc(CO[C@H]3O[C@H](CO)[C@@H](O)[C@H](O)[C@@H]3O[C@H]3O[C@H](CO)[C@@H](O)[C@H](O)[C@@H]3O)nn2)NC(=O)[C@H](CCCCn2cc(CO[C@H]3O[C@H](CO)[C@@H](O)[C@H](O)[C@@H]3O[C@H]3O[C@H](CO)[C@@H](O)[C@H](O)[C@@H]3O)nn2)NC(C)=O)C(N)=O)nn1)NC(C)=O)C(C)C)[C@@H](C)O)[C@@H](C)O)C(C)C)[C@@H](C)O)[C@@H](C)O)C(=O)N[C@@H](Cc1c[nH]c2ccccc12)C(=O)N[C@@H](CCCNC(=N)N)C(=O)NCC(=O)N[C@@H](CCCCN)C(N)=O` [B6-gp100], the “decrease of DC-SIGN affinity on conjugation to gp100 or gp100-TLR7L (factor)” value (Kd-app of conjugate vs unconjugated cluster) is recorded as “about 10”.

As for `CC(=O)N[C@@H](CCCCn1cc(CO[C@H]2O[C@H](CO[C@H]3O[C@H](CO)[C@@H](O)[C@H](O)[C@@H]3O)[C@@H](O)[C@H](O)[C@@H]2O)nn1)C(=O)NCC(=O)N[C@@H](CCCCn1cc(CO[C@H]2O[C@H](CO[C@H]3O[C@H](CO)[C@@H](O)[C@H](O)[C@@H]3O)[C@@H](O)[C@H](O)[C@@H]2O)nn1)C(=O)NCC(=O)N[C@@H](CCCCn1cc(CO[C@H]2O[C@H](CO[C@H]3O[C@H](CO)[C@@H](O)[C@H](O)[C@@H]3O)[C@@H](O)[C@H](O)[C@@H]2O)nn1)C(=O)NCC(=O)N[C@@H](CCCCN)C(N)=O` [D3], the Kd was determined as 48.7 ± 2.57 µM.

For the compound `CC(=O)N[C@@H](CCCCn1cc(CO[C@H]2O[C@H](CO[C@H]3O[C@H](CO)[C@@H](O)[C@H](O)[C@@H]3O)[C@@H](O)[C@H](O[C@H]3O[C@H](CO)[C@@H](O)[C@H](O)[C@@H]3O)[C@@H]2O)nn1)C(=O)NCC(=O)N[C@@H](CCCCn1cc(CO[C@H]2O[C@H](CO[C@H]3O[C@H](CO)[C@@H](O)[C@H](O)[C@@H]3O)[C@@H](O)[C@H](O[C@H]3O[C@H](CO)[C@@H](O)[C@H](O)[C@@H]3O)[C@@H]2O)nn1)C(=O)NCC(=O)N[C@@H](CCCCn1cc(CO[C@H]2O[C@H](CO[C@H]3O[C@H](CO)[C@@H](O)[C@H](O)[C@@H]3O)[C@@H](O)[C@H](O[C@H]3O[C@H](CO)[C@@H](O)[C@H](O)[C@@H]3O)[C@@H]2O)nn1)C(=O)NCC(=O)N[C@@H](CCCCN)C(N)=O` [E3], the Kd is 2.44 µM.
